Source: publication PMC7265341, “Quantifying CDK inhibitor selectivity in live cells” (Nature Communications, 2020)
Where two headings read alike, the source gives them in different places.

Tests used:
[1] = molecular target: CDK1/Cyclin E1 (Homo sapiens, UniProt P06493); assay: NanoBRET live-cell target engagement, CDK1-NanoLuc/Cyclin E1 in HEK-293; type: binding; conditions: CDK1/E1, 10µM
[2] = molecular target: CDK2/Cyclin E1 (Homo sapiens, UniProt P24941); assay: NanoBRET live-cell target engagement, CDK2-NanoLuc/Cyclin E1 in HEK-293; type: binding; conditions: CDK2/E1, 10µM
[3] = molecular target: CDK4/Cyclin D1 (Homo sapiens, UniProt P11802); assay: NanoBRET live-cell target engagement, NanoLuc-CDK4/Cyclin D1 in HEK-293; type: binding; conditions: CDK4/D1, 10µM
[4] = molecular target: CDK5/CDK5R1 (Homo sapiens, UniProt Q00535); assay: NanoBRET live-cell target engagement, CDK5-NanoLuc/CDK5R1 in HEK-293; type: binding; conditions: CDK5/CDK5R1, 10µM
[5] = molecular target: CDK6/Cyclin D1 (Homo sapiens, UniProt Q00534); assay: NanoBRET live-cell target engagement, NanoLuc-CDK6/Cyclin D1 in HEK-293; type: binding; conditions: CDK6/D1, 10µM
[6] = molecular target: CDK8/Cyclin C (Homo sapiens, UniProt P49336); assay: NanoBRET live-cell target engagement, NanoLuc-CDK8/Cyclin C in HEK-293; type: binding; conditions: CDK8/C, 10µM
[7] = molecular target: CDK9/Cyclin K (Homo sapiens, UniProt P50750); assay: NanoBRET live-cell target engagement, NanoLuc-CDK9/Cyclin K in HEK-293; type: binding; conditions: CDK9/K, 10µM
[8] = molecular target: T1, CDK11A/Cyclin L2 (Homo sapiens, UniProt Q9UQ88); assay: NanoBRET live-cell target engagement, CDK11A-NanoLuc/Cyclin L2 in HEK-293; type: binding; conditions: CDK11a/L2, 10µM
T1 sequence (Q9UQ88 1-783): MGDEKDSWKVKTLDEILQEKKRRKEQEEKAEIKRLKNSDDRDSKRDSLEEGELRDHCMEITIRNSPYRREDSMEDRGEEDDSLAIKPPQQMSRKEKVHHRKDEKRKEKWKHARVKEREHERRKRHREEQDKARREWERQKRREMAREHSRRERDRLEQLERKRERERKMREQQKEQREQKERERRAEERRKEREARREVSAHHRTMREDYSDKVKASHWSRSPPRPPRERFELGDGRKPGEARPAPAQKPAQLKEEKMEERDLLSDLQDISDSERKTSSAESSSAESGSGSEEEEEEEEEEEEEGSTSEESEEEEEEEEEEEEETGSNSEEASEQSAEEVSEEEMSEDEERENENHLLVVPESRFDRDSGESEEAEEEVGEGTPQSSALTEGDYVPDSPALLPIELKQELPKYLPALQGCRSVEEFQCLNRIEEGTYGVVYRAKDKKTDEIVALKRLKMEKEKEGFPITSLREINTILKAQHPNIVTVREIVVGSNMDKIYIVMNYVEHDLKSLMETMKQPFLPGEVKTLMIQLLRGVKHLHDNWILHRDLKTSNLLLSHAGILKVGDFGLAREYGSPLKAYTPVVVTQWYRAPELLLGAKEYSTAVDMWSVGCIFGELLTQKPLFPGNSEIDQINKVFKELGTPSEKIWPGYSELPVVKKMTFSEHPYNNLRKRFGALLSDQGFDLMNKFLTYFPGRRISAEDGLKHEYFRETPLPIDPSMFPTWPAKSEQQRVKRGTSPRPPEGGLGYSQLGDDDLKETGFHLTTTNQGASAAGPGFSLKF

[9] = molecular target: CDK11B/Cyclin L2 (Homo sapiens, UniProt P21127); assay: NanoBRET live-cell target engagement, CDK11B-NanoLuc/Cyclin L2 in HEK-293; type: binding; conditions: CDK11b/L2, 10µM
[10] = molecular target: CDK12/Cyclin K (Homo sapiens, UniProt Q9NYV4); assay: NanoBRET live-cell target engagement, CDK12-NanoLuc/Cyclin K in HEK-293; type: binding; conditions: 10µM
[11] = molecular target: CDK13/Cyclin K (Homo sapiens, UniProt Q14004); assay: NanoBRET live-cell target engagement, CDK13-NanoLuc/Cyclin K in HEK-293; type: binding; conditions: CDK13/K, 10µM
[12] = molecular target: CDK14/Cyclin Y (Homo sapiens, UniProt O94921); assay: NanoBRET live-cell target engagement, CDK14-NanoLuc/Cyclin Y in HEK-293; type: binding; conditions: CDK14/Y, 10µM
[13] = molecular target: CDK15/Cyclin Y (Homo sapiens, UniProt Q96Q40); assay: NanoBRET live-cell target engagement, NanoLuc-CDK15/Cyclin Y in HEK-293; type: binding; conditions: CDK15/Y, 10µM
[14] = molecular target: CDK16/Cyclin Y (Homo sapiens, UniProt Q00536); assay: NanoBRET live-cell target engagement, CDK16-NanoLuc/Cyclin Y in HEK-293; type: binding; conditions: CDK16/Y, 10µM
[15] = molecular target: CDK17/Cyclin Y (Homo sapiens, UniProt Q00537); assay: NanoBRET live-cell target engagement, CDK17-NanoLuc/Cyclin Y in HEK-293; type: binding; conditions: CDK17/Y, 10µM
[16] = molecular target: CDK18/Cyclin Y (Homo sapiens, UniProt Q07002); assay: NanoBRET live-cell target engagement, CDK18-NanoLuc/Cyclin Y in HEK-293; type: binding; conditions: CDK18/Y, 10µM
[17] = molecular target: CDK20/Cyclin H (Homo sapiens, UniProt Q8IZL9); assay: NanoBRET live-cell target engagement, NanoLuc-CDK20/Cyclin H in HEK-293; type: binding; conditions: 10µM
[18] = molecular target: CDK19/Cyclin C (Homo sapiens, UniProt Q9BWU1); assay: NanoBRET live-cell target engagement, NanoLuc-CDK19/Cyclin C in HEK-293; conditions: 10µM
[19] = molecular target: CDK10/Cyclin L2 (Homo sapiens, UniProt Q15131); assay: NanoBRET live-cell target engagement, CDK10-NanoLuc/Cyclin L2 in HEK-293; conditions: 10µM
[20] = average of replicates, read-out: Inhibition at 10µM (%) Average
[21] = read-out: Inhibition at 10µM (%) Replicate 1
[22] = read-out: Inhibition at 10µM (%) Replicate 2

Sequence of CDK9/Cyclin K (P50750 whole entry): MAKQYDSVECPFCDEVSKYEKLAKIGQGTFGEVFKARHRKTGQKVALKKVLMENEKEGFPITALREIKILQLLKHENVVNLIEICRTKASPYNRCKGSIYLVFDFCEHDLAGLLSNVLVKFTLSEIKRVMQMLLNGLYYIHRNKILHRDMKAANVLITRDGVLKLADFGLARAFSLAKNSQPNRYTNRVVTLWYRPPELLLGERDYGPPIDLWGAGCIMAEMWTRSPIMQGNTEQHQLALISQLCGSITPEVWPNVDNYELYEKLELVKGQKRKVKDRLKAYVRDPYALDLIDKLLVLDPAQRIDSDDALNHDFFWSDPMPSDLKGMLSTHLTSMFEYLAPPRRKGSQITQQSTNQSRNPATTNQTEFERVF
Sequence of CDK9/Cyclin K (O75909 whole entry partner): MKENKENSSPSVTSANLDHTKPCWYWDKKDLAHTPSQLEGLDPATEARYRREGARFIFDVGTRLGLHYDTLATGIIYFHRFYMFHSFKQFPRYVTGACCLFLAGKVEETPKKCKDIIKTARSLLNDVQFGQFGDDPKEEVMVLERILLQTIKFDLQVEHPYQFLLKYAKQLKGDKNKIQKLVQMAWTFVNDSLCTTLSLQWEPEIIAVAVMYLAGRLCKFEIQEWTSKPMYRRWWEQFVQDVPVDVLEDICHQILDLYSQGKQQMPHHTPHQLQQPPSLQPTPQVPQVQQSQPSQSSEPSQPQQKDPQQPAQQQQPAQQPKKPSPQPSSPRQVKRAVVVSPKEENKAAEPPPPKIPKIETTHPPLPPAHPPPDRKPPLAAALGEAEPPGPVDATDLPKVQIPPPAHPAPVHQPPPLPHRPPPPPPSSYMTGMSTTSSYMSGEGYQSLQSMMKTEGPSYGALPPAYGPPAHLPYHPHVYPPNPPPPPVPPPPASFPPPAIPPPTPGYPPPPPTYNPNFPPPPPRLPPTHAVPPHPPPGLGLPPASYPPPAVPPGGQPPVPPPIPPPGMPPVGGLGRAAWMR
Sequence of CDK10/Cyclin L2 (Q15131 whole entry): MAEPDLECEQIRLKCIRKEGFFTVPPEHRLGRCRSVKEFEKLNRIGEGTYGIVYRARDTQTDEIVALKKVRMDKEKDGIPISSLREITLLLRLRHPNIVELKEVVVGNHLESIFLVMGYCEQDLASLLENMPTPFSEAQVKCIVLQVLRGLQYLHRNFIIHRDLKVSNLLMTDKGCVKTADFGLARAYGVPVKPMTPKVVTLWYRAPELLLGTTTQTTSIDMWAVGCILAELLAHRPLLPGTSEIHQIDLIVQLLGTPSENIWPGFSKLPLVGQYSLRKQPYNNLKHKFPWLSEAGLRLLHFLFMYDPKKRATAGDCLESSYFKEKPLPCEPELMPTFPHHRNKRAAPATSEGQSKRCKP
Sequence of CDK6/Cyclin D1 (Q00534 whole entry): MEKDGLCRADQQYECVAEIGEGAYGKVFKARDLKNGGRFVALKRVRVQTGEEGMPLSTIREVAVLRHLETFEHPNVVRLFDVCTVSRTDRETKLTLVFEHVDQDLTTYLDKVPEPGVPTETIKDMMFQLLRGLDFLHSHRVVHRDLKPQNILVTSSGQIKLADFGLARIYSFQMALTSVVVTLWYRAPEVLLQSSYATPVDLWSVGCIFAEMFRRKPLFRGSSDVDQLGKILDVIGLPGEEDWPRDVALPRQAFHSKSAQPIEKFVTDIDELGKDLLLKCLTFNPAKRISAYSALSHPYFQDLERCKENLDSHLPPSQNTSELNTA
Sequence of CDK6/Cyclin D1 (P24385 whole entry partner): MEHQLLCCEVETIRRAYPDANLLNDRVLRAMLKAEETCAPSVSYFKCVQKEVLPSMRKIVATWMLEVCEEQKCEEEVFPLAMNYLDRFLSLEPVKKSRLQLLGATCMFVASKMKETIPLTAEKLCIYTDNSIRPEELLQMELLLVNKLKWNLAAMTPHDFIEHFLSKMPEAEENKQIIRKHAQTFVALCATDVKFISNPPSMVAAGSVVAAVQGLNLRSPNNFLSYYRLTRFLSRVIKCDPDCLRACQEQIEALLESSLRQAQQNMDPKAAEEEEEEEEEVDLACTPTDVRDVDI
Sequence of CDK12/Cyclin K (Q9NYV4 1-1481 isoform Q9NYV4-2): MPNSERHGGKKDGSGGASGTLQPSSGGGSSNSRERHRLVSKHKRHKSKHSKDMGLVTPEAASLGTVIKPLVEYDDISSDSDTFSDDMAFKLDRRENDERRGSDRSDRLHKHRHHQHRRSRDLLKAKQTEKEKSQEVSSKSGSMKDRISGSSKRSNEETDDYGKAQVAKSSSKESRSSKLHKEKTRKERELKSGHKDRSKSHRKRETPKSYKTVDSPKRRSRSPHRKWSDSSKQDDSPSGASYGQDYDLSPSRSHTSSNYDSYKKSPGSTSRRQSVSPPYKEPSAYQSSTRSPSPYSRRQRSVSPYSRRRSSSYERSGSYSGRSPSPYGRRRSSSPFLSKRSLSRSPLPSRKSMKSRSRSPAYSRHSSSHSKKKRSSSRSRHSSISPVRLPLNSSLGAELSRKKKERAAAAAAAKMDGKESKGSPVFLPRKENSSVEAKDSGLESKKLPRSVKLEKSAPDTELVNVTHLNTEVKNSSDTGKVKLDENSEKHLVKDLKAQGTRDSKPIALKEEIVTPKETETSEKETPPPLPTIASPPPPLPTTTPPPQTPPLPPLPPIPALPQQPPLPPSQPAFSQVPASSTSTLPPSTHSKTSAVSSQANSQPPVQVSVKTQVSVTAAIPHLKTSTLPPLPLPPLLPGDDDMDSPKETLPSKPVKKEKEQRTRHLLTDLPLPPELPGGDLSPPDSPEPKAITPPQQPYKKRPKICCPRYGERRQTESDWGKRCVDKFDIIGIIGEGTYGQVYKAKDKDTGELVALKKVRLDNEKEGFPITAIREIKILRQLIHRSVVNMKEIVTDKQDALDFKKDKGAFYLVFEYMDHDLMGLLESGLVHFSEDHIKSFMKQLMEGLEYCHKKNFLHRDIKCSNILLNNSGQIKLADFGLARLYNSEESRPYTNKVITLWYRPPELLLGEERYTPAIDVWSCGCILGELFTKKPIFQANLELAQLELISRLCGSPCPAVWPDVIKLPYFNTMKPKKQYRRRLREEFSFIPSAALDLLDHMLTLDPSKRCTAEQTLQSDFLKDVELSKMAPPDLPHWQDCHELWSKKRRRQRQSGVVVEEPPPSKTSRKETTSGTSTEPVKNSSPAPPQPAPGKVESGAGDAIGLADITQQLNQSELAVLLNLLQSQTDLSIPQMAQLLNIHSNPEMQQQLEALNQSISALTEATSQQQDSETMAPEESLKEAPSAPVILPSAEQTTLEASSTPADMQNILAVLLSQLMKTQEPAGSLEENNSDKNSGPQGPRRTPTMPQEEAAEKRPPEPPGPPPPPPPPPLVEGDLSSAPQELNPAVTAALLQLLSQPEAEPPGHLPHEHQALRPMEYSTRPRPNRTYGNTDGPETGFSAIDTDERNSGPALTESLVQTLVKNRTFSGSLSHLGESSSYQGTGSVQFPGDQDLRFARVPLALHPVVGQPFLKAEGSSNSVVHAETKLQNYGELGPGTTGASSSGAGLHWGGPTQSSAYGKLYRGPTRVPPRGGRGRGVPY
Sequence of CDK12/Cyclin K (O75909 whole entry partner): as the sequence (O75909 whole entry partner) above
Sequence of CDK5/CDK5R1 (Q00535 whole entry): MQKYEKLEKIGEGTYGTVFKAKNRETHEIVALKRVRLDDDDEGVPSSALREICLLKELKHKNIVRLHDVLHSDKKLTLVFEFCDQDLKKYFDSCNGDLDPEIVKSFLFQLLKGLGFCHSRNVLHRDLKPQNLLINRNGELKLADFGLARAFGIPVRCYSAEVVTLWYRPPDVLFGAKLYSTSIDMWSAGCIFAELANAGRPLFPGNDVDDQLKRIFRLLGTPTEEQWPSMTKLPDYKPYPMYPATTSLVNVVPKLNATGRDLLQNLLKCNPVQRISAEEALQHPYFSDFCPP
Sequence of CDK5/CDK5R1 (Q15078 whole entry partner): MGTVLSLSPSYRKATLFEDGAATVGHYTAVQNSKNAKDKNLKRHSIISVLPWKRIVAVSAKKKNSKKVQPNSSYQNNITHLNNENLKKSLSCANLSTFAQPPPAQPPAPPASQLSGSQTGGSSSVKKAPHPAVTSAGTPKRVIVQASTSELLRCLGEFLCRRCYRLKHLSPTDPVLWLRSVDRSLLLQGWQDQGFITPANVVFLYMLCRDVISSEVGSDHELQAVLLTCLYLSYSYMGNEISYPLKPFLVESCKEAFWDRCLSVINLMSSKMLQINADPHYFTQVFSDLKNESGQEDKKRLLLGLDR
Sequence of CDK15/Cyclin Y (Q96Q40 whole entry): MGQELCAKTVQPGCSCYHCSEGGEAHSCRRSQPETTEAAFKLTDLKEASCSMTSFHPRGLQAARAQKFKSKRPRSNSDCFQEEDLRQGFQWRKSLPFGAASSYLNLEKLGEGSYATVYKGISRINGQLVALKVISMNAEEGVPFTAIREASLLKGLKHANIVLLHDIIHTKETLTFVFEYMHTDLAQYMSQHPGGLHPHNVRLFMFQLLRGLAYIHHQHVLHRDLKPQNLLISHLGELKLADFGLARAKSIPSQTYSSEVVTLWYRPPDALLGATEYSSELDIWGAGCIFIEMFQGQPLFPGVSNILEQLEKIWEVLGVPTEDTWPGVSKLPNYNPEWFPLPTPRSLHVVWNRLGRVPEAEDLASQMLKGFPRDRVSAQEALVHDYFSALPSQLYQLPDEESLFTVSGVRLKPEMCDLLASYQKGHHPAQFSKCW
Sequence of CDK15/Cyclin Y (Q8ND76 whole entry partner): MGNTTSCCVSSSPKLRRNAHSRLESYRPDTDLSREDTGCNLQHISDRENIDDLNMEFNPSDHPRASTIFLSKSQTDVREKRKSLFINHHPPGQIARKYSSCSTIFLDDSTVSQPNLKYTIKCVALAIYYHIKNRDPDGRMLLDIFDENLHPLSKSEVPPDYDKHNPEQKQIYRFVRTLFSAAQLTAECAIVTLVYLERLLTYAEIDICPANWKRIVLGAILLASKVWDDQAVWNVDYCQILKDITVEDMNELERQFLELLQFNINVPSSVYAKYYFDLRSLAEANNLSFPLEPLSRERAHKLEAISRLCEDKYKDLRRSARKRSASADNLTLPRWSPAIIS

COc1cc(F)ccc1-c1ncnc(Nc2cccc(C[S@](C)(=N)=O)c2)n1 [Atuveciclib]
inhibition at 10 µM [1, 20]: 16.6%
inhibition at 10 µM [1, 21]: 19.4%
inhibition at 10 µM [1, 22]: 13.8%
inhibition at 10 µM [2, 20]: 41.7%
inhibition at 10 µM [2, 21]: 42.9%
inhibition at 10 µM [2, 22]: 40.5%
inhibition at 10 µM [3, 20]: 31.5%
inhibition at 10 µM [3, 21]: 53.7%
inhibition at 10 µM [3, 22]: 9.3%
inhibition at 10 µM [4, 20]: 26.1%
inhibition at 10 µM [4, 21]: 23.9%
inhibition at 10 µM [4, 22]: 28.3%
inhibition at 10 µM [5, 20]: 64.1%
inhibition at 10 µM [5, 21]: 61.7%
inhibition at 10 µM [5, 22]: 66.4%
inhibition at 10 µM [6, 20]: 3%
inhibition at 10 µM [6, 21]: -1%
inhibition at 10 µM [6, 22]: 7%
inhibition at 10 µM [7, 20]: 97.9%
inhibition at 10 µM [7, 21]: 98.1%
inhibition at 10 µM [7, 22]: 97.6%
inhibition at 10 µM [8, 20]: 10%
inhibition at 10 µM [8, 21]: 12.3%
inhibition at 10 µM [8, 22]: 7.6%
inhibition at 10 µM [9, 20]: 7.4%
inhibition at 10 µM [9, 21]: 11.9%
inhibition at 10 µM [9, 22]: 2.9%
inhibition at 10 µM ([10]; read-out: Inhibition at 10µM (%) Average, CDK12/K, average of replicates): 8.2%
inhibition at 10 µM ([10]; read-out: Inhibition at 10µM (%) Replicate 1, CDK12/K): 3%
inhibition at 10 µM ([10]; read-out: Inhibition at 10µM (%) Replicate 2, CDK12/K): 13.3%
inhibition at 10 µM [11, 20]: 4.8%
inhibition at 10 µM [11, 21]: 8%
inhibition at 10 µM [11, 22]: 1.6%
inhibition at 10 µM [12, 20]: 3%
inhibition at 10 µM [12, 21]: 8.4%
inhibition at 10 µM [12, 22]: -2.5%
inhibition at 10 µM [13, 20]: 4.5%
inhibition at 10 µM [13, 21]: 2%
inhibition at 10 µM [13, 22]: 7.1%
inhibition at 10 µM [14, 21]: 39.3%
inhibition at 10 µM [14, 22]: 37.9%
inhibition at 10 µM [15, 20]: 31%
inhibition at 10 µM [15, 21]: 30.9%
inhibition at 10 µM [15, 22]: 31.1%
inhibition at 10 µM [16, 20]: 19.9%
inhibition at 10 µM [16, 21]: 17.3%
inhibition at 10 µM [16, 22]: 22.4%
inhibition at 10 µM ([17]; read-out: Inhibition at 10µM (%) Replicate 1, CDK20/H): 1.3%
inhibition at 10 µM ([17]; read-out: Inhibition at 10µM (%) Replicate 2, CDK20/H): 1.3%
inhibition at 10 µM ([18]; read-out: Inhibition at 10µM (%) Average, CDK19/C, average of replicates): 11.1%
inhibition at 10 µM ([18]; read-out: Inhibition at 10µM (%) Replicate 1, CDK19/C): 12.3%
inhibition at 10 µM ([18]; read-out: Inhibition at 10µM (%) Replicate 2, CDK19/C): 9.9%
inhibition at 10 µM ([19]; read-out: Inhibition at 10µM (%) Average, CDK10/L2, average of replicates): 6.3%
inhibition at 10 µM ([19]; read-out: Inhibition at 10µM (%) Replicate 1, CDK10/L2): 9.2%
inhibition at 10 µM ([19]; read-out: Inhibition at 10µM (%) Replicate 2, CDK10/L2): 3.4%
